Test results taken from patent US12516365B2, “Biocide compositions compatible with enzyme biosensors and methods of use thereof” (priority 2019, dated 2026).
Counter-ions that a name gives are not always drawn.

How the values were obtained:
[1] = tested on: Creatinine Sensor; experiment: Screen of biocides/antibiotics for compatibility with the Creatinine Sensor (Creatinine Sensor Slope loss); type: biochemical; parameters: key: “Fail” indicates the compound inhibited Creatinine Sensor Slope; “Pass” indicates there was no significant effect on Creatinine Sensor Slope
Source text: In one embodiment, a biocide candidate may be injected into, for example, one PCS-B bag after about one week of cartridge use life, and then any changes in sensor slopes over the next week or two, especially any increase in the rate of slope decrease, may be observed. During this time, aqueous solutions with high substrate concentrations may be tested to ensure that enzymes are still able to convert all substrate to products in the allotted time (e.g., about one minute).
In one embodiment, multiple cartridges assembled with, for example, PCS-B bags containing a candidate biocide may be tested for a prolonged period of time (e.g., 20-30 days) that corresponds to the useful cartridge lifespan (which may vary depending upon the cartridge type tested). In this case the cartridge starts the hydration process, which generally lasts about 50 minutes, with the biocide already in the solution bag (e.g., PCS-B). […] Over the course of 3 weeks, in addition to running aqueous controls that have established acceptance ranges, whole human blood may also be tested in order to simulate normal customer use.
A variety of candidate molecules were screened as described above to determine whether they were compatible with the Creatinine Sensor, i.e. whether there was a significant effect on Creatinine Sensor Slope.

[2] = tested on: ChemSTAT creatinine sensor (creatininase, creatinase and sarcosine oxidase); experiment: Creatinine and creatine sensor slopes over time with biocide in Process Control Solution (PCS); type: biochemical; settings: for Creatinine and creatine slopes over time after addition to PCS: 20 mg/L added to PCS-B after stable slopes for more than one week
Procedure: FIGS. 2A-2B show plots of creatinine and creatine slopes over time in the presence of either MIT or polymyxin B, respectively. […] Stable slopes were first established for more than one week before 300 mg/L MIT (methyl isothiazolinone) or 20 mg/L polymyxin B was added to the Process Control Solution (PCS) B (e.g., PCS-B).
The present disclosure discovered that Polymyxin B and Polymyxin E (aka, Colistin Sulfate) were compatible with a ChemSTAT creatinine sensor that utilized two hydrolase class enzymes (e.g., creatininase and creatinase) and sarcosine oxidase to measure creatinine. When included in Process Control Solutions (PCS) at a concentration sufficient to kill microbes (e.g., bacteria, in particular gram negative rods including various strains of Pseudomonas), the slope of the sensor remained high enough over 21 days to continually allow accurate measurement of creatinine in human blood and aqueous control solutions even at the upper end of the linear range where reduced enzyme activity could result in low recovery of substrate.
MIT is the most common biocide used in the blood gas industry for microbial contamination, and is known to be compatible with oxidase class enzymes such as glucose oxidase and lactate oxidase.
Importantly, the creatinine slope performed equivalently with colistin in PCS bags (see FIG. 3, left) to cartridges with PCS bags protected only with gentamicin (see FIG. 3, right). In this plot, no bacterial contamination was observed on control or test biocide PCS bags nor was there any evidence of enzyme inhibition and therefore performance is similar.

| Molecule | Pass/Fail (Creatinine Sensor Slope Loss) [1] | Inhibition/inactivation of creatininase, creatinase and sarcosine oxidase [2] | further results |
| --- | --- | --- | --- |
| Oc1ccccc1-c1ccccc1 [2-phenyl phenol] | Fail | – | – |
| Oc1cccc2cccnc12 [8-hydroxyquinoline] | Fail | – | – |
| NCC[C@H](O)C(=O)N[C@@H]1C[C@H](N)[C@@H](O[C@H]2O[C@H](CN)[C@@H](O)[C@H](O)[C@H]2O)[C@H](O)[C@H]1O[C@H]1O[C@H](CO)[C@@H](O)[C@H](N)[C@H]1O [Amikacin sulfate] | Pass | – | – |
| O=c1[nH]sc2ccccc12 [BIT, benisothiazolinone] | Fail | irreversibly inhibited | – |
| CC1(C)S[C@@H]2[C@H](NC(=O)C(C(=O)O)c3ccccc3)C(=O)N2C1C(=O)O (some centres unmarked) [Carbenicillin disodium] | Pass | – | – |
| CC(C)(O/N=C(\C(=O)N[C@@H]1C(=O)N2C(C(=O)[O-])=C(C[n+]3ccccc3)CS[C@H]12)c1csc(N)n1)C(=O)O [Ceftazidime] | Pass | – | – |
| Cn1sc(Cl)cc1=O [Cl-MIT, chlorinatedmethyl- isonthiazolinone] | Fail | irreversibly inhibited | – |
| CC1(C)NC(=O)NC1=O [Dantogard Plus, dimethylhydantoin] | Fail | irreversibly inhibited | – |
| CNC1C(O)[C@@H](O[C@H]2C(N)C[C@H](N)C(O[C@H]3OC(C(C)N)CCC3N)C2O)OC[C@]1(C)O (some centres unmarked) [Gentamicin sulfate] | Pass | – | Creatinine slope performance over time in PCS ([2]; full use life of three weeks): maintained sufficient creatinine slope |
| C[C@H]1COc2c(N3CCN(C)CC3)c(F)cc3c(=O)c(C(=O)O)cn1c23 [Levofloxacin] | Pass | – | – |
| Cn1sc2ccccc2c1=O [MBIT, methylbenzisothiazolinone] | Fail | irreversibly inhibited | – |
| CCn1cc(C(=O)O)c(=O)c2cc(F)c(N3CCNCC3)cc21 [Norfloxacin] | Fail | irreversibly inhibited | – |
| CCCCNC(=O)OCC#CI [Omacide IPBC, iodopropynylbutylcarbamate] | Fail | irreversibly inhibited | – |
| CCN1CCN(C(=O)N[C@@H](C(=O)N[C@@H]2C(=O)N3C(C(=O)O)C(C)(C)S[C@H]23)c2ccccc2)C(=O)C1=O (some centres unmarked) [Piperacillin] | Pass | – | – |
| CN[C@@H]1[C@H](O)[C@H](NC)[C@H]2O[C@@]3(O)C(=O)C[C@@H](C)O[C@H]3O[C@@H]2[C@H]1O [Spectinomycin] | Pass | – | – |
| COc1cc(Cc2cnc(N)nc2N)cc(OC)c1OC [Trimethoprim] | Fail | irreversibly inhibited | – |
| Polymyxin B | Pass | – | Creatinine and creatine slopes over time after addition to PCS [2]: no effect; Creatinine and creatine slopes over time after addition to PCS ([2]; listed as polymyxin B): does not causes a rapid decay; Compatibility with ChemSTAT creatinine sensor ([2]; in PCS at a concentration sufficient to kill microbes, slope over 21 days): compatible |
| Streptomycin | Pass | – | – |
